# Tests used:
# [1] = test system: pieces of presumptive ectoderm of Xenopus late blastula; test: Simultaneous one-hour treatment of pieces of presumptive ectoderm with activin/retinoic acid, tissues that differentiate (light microscopy); type: cell-based, Xenopus laevis
# Protocol: (§1) The dorsal lymph sacs of adult male and female Xenopus laevis were each injected with 600 IU of hCG (human chorionic gonadotropin; Gestron; Denka Seiyaku, Japan), and fertilized eggs were obtained by mating these Xenopuses. These late blastulas [developmental stage 9] were dejellied in Steinberg's solution (SS: 58.00 mM NaCl, 0.67 mM KCl, 0.34 mM Ca(NO3)2, 0.83 mM MgSO4, 3.00 mM HEPES and 100 mg/l kanamycin sulfate; pH 7.4) containing 4.5% cysteine hydrochloride (pH 7.8), and the vitelline membranes were removed in the Steinberg's solution by using a pair of watchmaker's tweezers. The presumptive ectoderm portion of Xenopus late blastula thus obtained was cut into a size of 0.4 mm×0.4 mm by using a tungsten needle.
# (§2) Human recombinant activin A (Ajinomoto Co., Inc.) was dissolved in Steinberg's solution containing 0.1% bovine serum albumin (BSA) to a concentration of 100 ng/ml, and an activin solution was prepared.
# C. (see temporary treatment in FIG. 1). These explants that had been cultured were fixed with Bouin's solution, followed by dehydration treatment of a series of ethanol and xylene, and these explants were embedded in paraffin and sliced into 6 μm sections. These sections were stained with hematoxylin and eosin, and the tissues that differentiated were observed and examined under a light microscope. Further, the untreated pieces of presumptive ectoderm were also observed and examined in the same manner by using a light microscope.
# [2] = test system: pieces of presumptive ectoderm of Xenopus late blastula; test: Simultaneous and continuous treatment of pieces of presumptive ectoderm with activin/retinoic acid, tissues that differentiate; type: cell-based, Xenopus laevis; details: continuous, activin 100 ng/ml, retinoic acid 0 M, 10 samples
# Protocol: as §1, §2
# Based on the results from Example 2, since the effect of retinoic acid treatment was found in the differential pattern of mesodermal tissues, it can be considered that retinoic acid acted in the period when the fate of the mesoderm is determined to each mesodermal tissue (notochord, muscle, pronephric tubule and the like, for example). […] C. for 10 days (see continuous treatment in FIG. 1). These explants that had been cultured were stained in the same manner as in Example 2, and the tissues that differentiated were observed and examined by using a light microscope.
# [3] = test system: pieces of presumptive ectoderm of Xenopus late blastula; test: Time lag treatment of pieces of presumptive ectoderm with activin then retinoic acid, tissues that differentiate; type: cell-based, Xenopus laevis; details: activin 100 ng/ml alone 1 h, 65 samples
# Protocol: as §1
# A time lag was provided between the treatment with activin and treatment with retinoic acid, so that the action of retinoic acid can be received for the first time, after the differentiation to dorsal mesoderm/anterior endoderm had been determined by action of activin. […] After the elapse of the time lag, the pieces of presumptive ectoderm were left at rest in retinoic acid solution at 10^−4 M for one hour, washed two times with Steinberg's solution containing 0.1% BSA, and then cultured in Steinberg's solution containing 0.1% BSA at 20° C. for ten days (see time lag treatment in FIG. 1). These explants that had been cultured were stained in the same manner as described in Example 2, and the tissues that differentiated were observed and examined under a light microscope.
# insulin and XlHbox8 = test: RT-PCR expression of pancreas-specific genes in explants; type: cell-based, Xenopus laevis; details: treated with one agent alone, cultured three days
# Source text: C., and the expression of insulin that is a pancreas-specific gene (Henry, G. L. et al.; Development 122, 1007-1015, 1996) and XlHbox8 (Lemaire, P. et al.; Development 125, 2371-2380, 1998) were examined by the method as previously described (Yokota, C. et al.; J. Biochem. 123, 339-346, 1998). […] EF-1α (elongation factor 1α) was used as a loading control. The combination of primers of each gene in PCR reaction that were used is as follows: insulin [insulin-[…] No. 1), insulin-[…] No. 2)], […] No. 3), […] No. 4)], […] No. 5), and […] No. 6)]. Seventy-six μl of DDW, 10 μl of 10×Ex buffer, 8 μl of 2.5 mM dNTPs mix, 0.5 μl of 5[…] 0.5 μl of 100 μM of each of the above-mentioned primers were added to 5 μl of the above-mentioned cDNA (20 ng/μl), and PCR reaction was conducted with the total amount of 100 μl. The thermal cycle program, which is a cycle to denature for four minutes at 94° C. only at the first time, followed by thermal denaturation for 30 seconds at 94° C., […], was repeated for 23 to 30 times. Ultimately, annealing was conducted for nine minutes at 72° C. […] As a negative control, EF-1α wherein RT-PCR was conducted under a condition where the reverse transcription factor had been eliminated was used.
# Xenopus animal cap cells = details: cited from earlier work
# whole embryos = test: Retinoic acid treatment of whole embryos from blastula to gastrula; type: in vivo, Xenopus
# Source text: Moreover, there has been a report regarding the effect of retinoic acid to the endoderm of Xenopus embryo (Zeynali, B. and Dixon, K. E.; Dev. Genes. Evol. 208, 318-326, 1998). […] The present inventors conducted retinoic acid treatment to the whole embryos from the period of blastula to gastrula. […] However, the physical relationship of each of the endodermal organs was abnormal and the endodermal organs were formed aggregately in the anterior and posterior axis direction.
# [4] = test system: Xenopus embryos at developmental stage 22 to 32; details: cited from earlier work
# [5] = test system: blastopore upper lip cell of Xenopus early gastrula; details: cited from earlier work
# [6] = activin 100 ng/ml, retinoic acid 0 M, 1 h, 31 samples
compound,measurement,setting,value
"activin: Human recombinant activin A (Ajinomoto Co., Inc.)",Atypical epidermis differentiated in explants,[1]; [6],0(0) number (percentage)
same,Cartilage differentiated in explants,[1]; [6],5(16) number (percentage)
same,Coelomic epithelium differentiated in explants,[1]; [6],15(48) number (percentage)
same,Epidermis differentiated in explants,[1]; [6],30(97) number (percentage)
same,Intestinal epithelium differentiated in explants,[1]; [6],0(0) number (percentage)
same,Mesenchyme differentiated in explants,[1]; [6],31(100) number (percentage)
same,Muscle differentiated in explants,[1]; [6],25(81) number (percentage)
same,Neural tissue differentiated in explants,[1]; [6],12(39) number (percentage)
same,Notochord differentiated in explants,[1]; [6],4(13) number (percentage)
same,Pancreas differentiated in explants,[1]; [6],0(0) number (percentage)
same,Pharyngeal epithelium differentiated in explants,[1]; [6],12(39) number (percentage)
same,Pronephric tubule differentiated in explants,[1]; [6],7(23) number (percentage)
same,Yolk-rich cell differentiated in explants,[1]; [6],18(58) number (percentage)
same,tissues that differentiated,[1]; treated only with activin (100 ng/ml),"dorsal mesodermal and anterior endodermal tissues such as notochord, muscle, pharyngeal epithelium and the like differentiated"
same,Atypical epidermis differentiated in explants,[2],0(0) number (percentage)
same,Cartilage differentiated in explants,[2],1(10) number (percentage)
same,Coelomic epithelium differentiated in explants,[2],4(40) number (percentage)
same,Epidermis differentiated in explants,[2],9(90) number (percentage)
same,Intestinal epithelium differentiated in explants,[2],0(0) number (percentage)
same,Mesenchyme differentiated in explants,[2],9(90) number (percentage)
same,Muscle differentiated in explants,[2],10(100) number (percentage)
same,Neural tissue differentiated in explants,[2],10(100) number (percentage)
same,Notochord differentiated in explants,[2],3(30) number (percentage)
same,Pancreas differentiated in explants,[2],0(0) number (percentage)
same,Pharyngeal epithelium differentiated in explants,[2],5(50) number (percentage)
same,Pronephric tubule differentiated in explants,[2],0(0) number (percentage)
same,Yolk-rich cell differentiated in explants,[2],5(50) number (percentage)
same,Atypical epidermis differentiated in explants,[3],0(0) number (percentage)
same,Cartilage differentiated in explants,[3],12(18) number (percentage)
same,Coelomic epithelium differentiated in explants,[3],28(43) number (percentage)
same,Epidermis differentiated in explants,[3],59(91) number (percentage)
same,Intestinal epithelium differentiated in explants,[3],3(5) number (percentage)
same,Mesenchyme differentiated in explants,[3],59(91) number (percentage)
same,Muscle differentiated in explants,[3],37(57) number (percentage)
same,Neural tissue differentiated in explants,[3],32(49) number (percentage)
same,Notochord differentiated in explants,[3],34(52) number (percentage)
same,Pancreas differentiated in explants,[3],0(0) number (percentage)
same,Pharyngeal epithelium differentiated in explants,[3],37(57) number (percentage)
same,Pronephric tubule differentiated in explants,[3],5(8) number (percentage)
same,Yolk-rich cell differentiated in explants,[3],29(45) number (percentage)
same,expression of insulin and XlHbox8,insulin and XlHbox8,induced only a little
same,induction of mesodermal tissues,Xenopus animal cap cells,"induces most mesodermal tissues such as notochord, muscle, mesenchyme and coelomic epithelium, dose-dependently"
"CC1=C(/C=C/C(C)=C/C=C/C(C)=C/C(=O)O)C(C)(C)CCC1 [retinoic acid, All-trans retinoic acid]",expression of insulin and XlHbox8,insulin and XlHbox8,expression of these genes was not found
same,morphology of treated embryos,whole embryos,head-deficient embryos
same,induction of pancreas in vivo,whole embryos; whole embryos treated from blastula to gastrula,pancreas was not induced specifically in vivo
same,expression of XlHbox8,[4],no effect is found in the expression of XlHbox8
same,formation of pancreas,[4],formed normally
same,morphology of the digestive organs,[4],"the morphology of the digestive organs such as intestines, liver and stomach become abnormal"
same,pancreas formation,[5],enables pancreas formation with high efficiency
